Measurements reported in patent publication US10988523B2, “Modified lipidated Relaxin B chain peptides and their therapeutic use” (Sanofi, priority 2018, dated 2021).
*1 amine or outer side, *2 acyl side, *3 side chain or, on linkers, in order; H or OH if unused. Where a SMILES comes first, the peptide text is derived from it. Side-chain parts run from the residue outwards. [ ]: non-standard residue; d: D form. The star is where a group is joined. PEG12 = NCCOCCOCCOCCOCCOCCOCCOCCOCCOCCOCCOCCOCCC(=O)O; γGlu = O=C(O)[C@H](CCC(=O)[*:2])N[*:1]; Stearoyl = CCCCCCCCCCCCCCCCCC(=O)*; Palmitoyl = CCCCCCCCCCCCCCCC(=O)*; αMeK = C[C@](N)(CCCCN)C(=O)O; Nle = CCCC[C@H](N)C(=O)O; AEEA = NCCOCCOCC(=O)O; Aib = CC(C)(N)C(=O)O

Columns and labels:
RXFP1 = biological target: T1, RXFP1 (Homo sapiens, UniProt Q9HBX9); test: OVCAR5 cAMP assay (HTRF), RXFP1 agonist activity; format: cell-based; settings: for EC50: OVCAR5 cells, cAMP HTRF, read-out: EC50 (nM), OVCAR 5 cells (cAMP); for Emax: OVCAR-5, maximal cAMP relative to H2-relaxin maximum (100%), read-out: EMax, OVCAR 5 cells (cAMP)
T1 construct: OVCAR5 cells expressing endogenous RXFP1; endogenous in cells; host or cells: OVCAR5 cells
T1 sequence (Q9HBX9 1-757): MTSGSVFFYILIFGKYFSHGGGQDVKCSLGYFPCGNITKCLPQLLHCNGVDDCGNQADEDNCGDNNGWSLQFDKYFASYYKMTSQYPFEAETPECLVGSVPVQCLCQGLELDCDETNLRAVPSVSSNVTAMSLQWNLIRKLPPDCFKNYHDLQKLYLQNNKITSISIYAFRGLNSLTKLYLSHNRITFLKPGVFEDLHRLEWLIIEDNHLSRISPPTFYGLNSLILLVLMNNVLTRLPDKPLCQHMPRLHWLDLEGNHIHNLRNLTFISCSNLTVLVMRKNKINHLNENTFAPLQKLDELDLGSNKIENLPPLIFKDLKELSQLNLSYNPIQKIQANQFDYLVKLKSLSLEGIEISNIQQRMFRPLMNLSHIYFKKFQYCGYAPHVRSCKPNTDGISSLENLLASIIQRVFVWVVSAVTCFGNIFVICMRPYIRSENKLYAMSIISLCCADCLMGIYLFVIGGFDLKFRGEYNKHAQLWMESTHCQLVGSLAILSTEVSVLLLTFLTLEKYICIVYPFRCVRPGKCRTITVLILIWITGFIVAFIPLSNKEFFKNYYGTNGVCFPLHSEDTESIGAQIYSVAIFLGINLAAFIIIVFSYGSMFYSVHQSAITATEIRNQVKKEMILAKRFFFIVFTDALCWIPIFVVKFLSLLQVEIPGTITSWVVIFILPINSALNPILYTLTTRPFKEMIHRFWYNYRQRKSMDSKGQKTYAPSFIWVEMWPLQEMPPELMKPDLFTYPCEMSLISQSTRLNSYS
Summary of the method: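 OVCAR5 cells (endogenous RXFP1) pretreated 40 min at 37° C with 1 mM IBMX, then exposed to peptides in serum-free medium for 30 min at 37° C. Lysate cAMP read by HTRF; EC50 from variable-slope sigmoidal fit; Emax as % of H2-relaxin maximal cAMP in same run.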

[1] = Stability testing of peptides in human plasma or blood; format: in vitro ADME; settings: 37° C.; for Human Plasma stability % remaining T = 0: human plasma or blood, T = 0 (reference), 5 μM
Summary of the method: (§1)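 Peptide at 5 µM final was incubated at 37 °C in heparinized rat or human plasma or blood, sampled up to 4 h, and extracted with acetonitrile/1% TFA. HPLC peak areas relative to t0 give % remaining peptide.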

[2] = Stability testing of peptides in rat plasma or blood; format: in vitro ADME; settings: 37° C.; for Rat plasma stability % remaining T = 0: rat plasma or blood, T = 0 (reference), 5 μM
Summary of the method: as §1

[3] = Pharmacokinetic (PK) determination after i.v. or s.c. administration to rats; format: in vivo, Sprague Dawley rats; settings: Rat PK; for T½ / C0 / half-life: 1 mg/kg i.v.; for C0 / half-life: iv; for C0: extrapolated plasma concentration at t=0, read-out: C0; for Cmax / Tmax: 3 mg/kg s.c.; for bioavailability: subcutaneous; for half-life: read-out: T½ (converted)
Summary of the method: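 Sprague Dawley rats received peptide in PBS at 1 mg/kg i.v. or 3 mg/kg s.c., dose corrected for salts, solvent and purity. Plasma analysed by LC/MS after protein precipitation; non-compartmental PK, BLQ values set to zero, F% as dose-corrected s.c./i.v. AUC ratio.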

[4] = human plasma, read-out: Human Plasma stability % remaining 1 h
[5] = human plasma, read-out: Human Plasma stability % remaining 4 h
[6] = rat plasma, read-out: Rat plasma stability % remaining 1 h
[7] = rat plasma, read-out: Rat plasma stability % remaining 4 h
[8] = Sprague Dawley, plasma, 3 mg/kg s.c. vs 1 mg/kg i.v., dose-corrected AUC ratio

Compound | EC50 (RXFP1) [nM] | Emax (RXFP1) [%] | Human Plasma stability % remaining T = 0 [1] [%] | remaining at 1 h, 5 µM [1, 4] [%] | remaining at 4 h, 5 µM [1, 5] [%] | Rat plasma stability % remaining T = 0 [2] [%] | remaining at 1 h, 5 µM [2, 6] [%] | remaining at 4 h, 5 µM [2, 7] [%] | T½ [3] [h] | C0 ([3]; Sprague Dawley) [nM] | Cmax ([3]; Sprague Dawley, plasma, sc) [nM] | Tmax ([3]; Sprague Dawley, plasma, sc) [h] | bioavailability [3, 8] [%] | half-life ([3]; Sprague Dawley, plasma) [h] | Cmax [3] [nM] | F % ([3]; 3 mg/kg s.c. vs 1 mg/kg i.v., dose-corrected AUC ratio) [%] | remaining at 1 h, 5 µM ([1]; whole blood, human blood, read-out: Human stability in blood % remaining 1 h) [%] | remaining at 4 h, 5 µM ([1]; whole blood, human blood, read-out: Human stability in blood % remaining 4 h) [%] | remaining at 1 h, 5 µM ([2]; whole blood, rat blood, read-out: Rat stability in blood % remaining 1 h) [%] | remaining at 4 h, 5 µM ([2]; whole blood, rat blood, read-out: Rat stability in blood % remaining 4 h) [%]
CCCCCCCCCCCCCCCCCC(=O)N[C@@H](CCC(=O)N[C@@H](CCC(=O)N[C@@H](CCC(=O)NCCCC[C@H](NC(=O)CCOCCOCCOCCOCCOCCOCCOCCOCCOCCOCCOCCOCCNC(=O)[C@H](CCCCNC(C)=O)NC(=O)[C@H](CCCCN)NC(=O)[C@H](CCCNC(=N)N)NC(=O)C(C)(C)NC(=O)[C@H](CO)NC(=O)[C@H](Cc1c[nH]c2ccccc12)NC(=O)[C@@H](NC(=O)[C@H](CO)NC(=O)[C@H](CCCC)NC(=O)CNC(=O)[C@H](CCC(=O)O)NC(=O)C(C)(C)NC(=O)C(C)(C)NC(=O)[C@@H](NC(=O)[C@H](CCCCNC(C)=O)NC(=O)[C@H](C)NC(=O)[C@H](CCCNC(=N)N)NC(=O)[C@@H](NC(=O)[C@H](CCCCN)NC(=O)[C@H](CCC(=O)O)NC(=O)[C@H](CCCNC(=N)N)NC(=O)CNC(=O)[C@H](CCC(=O)O)NC(=O)[C@H](CC(C)C)NC(C)=O)C(C)C)[C@@H](C)CC)[C@@H](C)O)C(N)=O)C(=O)O)C(=O)O)C(=O)O [compound 33] (Ac-LEGREKVRAK(Ac)I[Aib][Aib]EG[Nle]STWS[Aib]RKK(Ac)[PEG12]K([γGlu-γGlu-γGlu-Stearoyl])-NH2) | 0.61 | 100 | 100 | 99 | 96 | 100 | 93 | 80 | 4.30 | 4200 | 2500 | 8 | 60 |  |  |  |  |  |  | 
CCCCCCCCCCCCCCCC(=O)N[C@@H](CCC(=O)N[C@@H](CCC(=O)N[C@@H](CCC(=O)NCCOCCOCC(=O)NCCOCCOCC(=O)NCCCC[C@H](NC(=O)[C@H](CCCCN)NC(=O)[C@H](CCCNC(=N)N)NC(=O)C(C)(C)NC(=O)[C@H](CO)NC(=O)[C@H](Cc1c[nH]c2ccccc12)NC(=O)[C@@H](NC(=O)[C@H](CO)NC(=O)[C@H](CCCC)NC(=O)CNC(=O)[C@H](CCC(=O)O)NC(=O)C(C)(C)NC(=O)C(C)(C)NC(=O)[C@@H](NC(=O)[C@H](CCC(N)=O)NC(=O)[C@H](C)NC(=O)[C@H](CCCNC(=N)N)NC(=O)[C@@H](NC(=O)[C@H](CCCCN)NC(=O)[C@H](CCC(=O)O)NC(=O)[C@H](CCCNC(=N)N)NC(=O)CNC(=O)[C@H](CCC(=O)O)NC(=O)[C@H](CC(C)C)NC(C)=O)C(C)C)[C@@H](C)CC)[C@@H](C)O)C(N)=O)C(=O)O)C(=O)O)C(=O)O [compound 58] (Ac-LEGREKVRAQI[Aib][Aib]EG[Nle]STWS[Aib]RKK([AEEA-AEEA-γGlu-γGlu-γGlu-Palmitoyl])-NH2) |  | 83 | 100 | 100 | 11 | 100 | 96 | 101 |  | 4020 | 1340 | 6 | 55 | 7.9 |  |  |  |  |  | 
CCCCCCCCCCCCCCCCCC(=O)N[C@@H](CCC(=O)N[C@@H](CCC(=O)N[C@@H](CCC(=O)NCCOCCOCC(=O)NCCOCCOCC(=O)NCCOCCOCC(=O)NCCCC[C@H](NC(=O)[C@H](CCCCNC(C)=O)NC(=O)[C@H](CCCCN)NC(=O)[C@H](CCCNC(=N)N)NC(=O)C(C)(C)NC(=O)[C@H](CO)NC(=O)[C@H](Cc1c[nH]c2ccccc12)NC(=O)[C@@H](NC(=O)[C@H](CO)NC(=O)[C@H](CCCC)NC(=O)CNC(=O)[C@H](CCC(=O)O)NC(=O)C(C)(C)NC(=O)C(C)(C)NC(=O)[C@@H](NC(=O)[C@H](CCCCNC(C)=O)NC(=O)[C@H](C)NC(=O)[C@H](CCCNC(=N)N)NC(=O)[C@@H](NC(=O)[C@H](CCCCN)NC(=O)[C@H](CCC(=O)O)NC(=O)[C@H](CCCNC(=N)N)NC(=O)CNC(=O)[C@H](CCC(=O)O)NC(=O)[C@H](CC(C)C)NC(C)=O)C(C)C)[C@@H](C)CC)[C@@H](C)O)C(N)=O)C(=O)O)C(=O)O)C(=O)O [compound 81] (Ac-LEGREKVRAK(Ac)I[Aib][Aib]EG[Nle]STWS[Aib]RKK(Ac)K([AEEA-AEEA-AEEA-γGlu-γGlu-γGlu-Stearoyl])-NH2) | 0.22 | 84 | 100 | 111 | 111 | 100 | 101 | 114 | 3.90 | 2600 |  | 8 |  |  | 1500 | 74 |  |  |  | 
CCCCCCCCCCCCCCCC(=O)N[C@@H](CCC(=O)N[C@@H](CCC(=O)N[C@@H](CCC(=O)N[C@@H](CCC(=O)NCCCC[C@H](NC(=O)COCCOCCNC(=O)COCCOCCNC(=O)COCCOCCNC(=O)COCCOCCNC(=O)[C@H](CCCCNC(C)=O)NC(=O)[C@H](C)NC(=O)[C@H](CCCNC(=N)N)NC(=O)[C@](C)(CCCCN)NC(=O)[C@H](CO)NC(=O)[C@H](Cc1ccccc1)NC(=O)[C@@H](NC(=O)[C@H](CO)NC(=O)[C@H](CCCC)NC(=O)CNC(=O)[C@H](CCC(=O)O)NC(=O)C(C)(C)NC(=O)C(C)(C)NC(=O)[C@@H](NC(=O)[C@H](CCCCNC(C)=O)NC(=O)[C@H](C)NC(=O)[C@H](CCCNC(=N)N)NC(=O)[C@@H](NC(=O)[C@H](CCCCN)NC(=O)[C@H](CCC(=O)O)NC(=O)[C@H](CCCNC(=N)N)NC(=O)CNC(=O)[C@H](CCC(=O)O)NC(=O)[C@H](CC(C)C)NC(C)=O)C(C)C)[C@@H](C)CC)[C@@H](C)O)C(N)=O)C(=O)O)C(=O)O)C(=O)O)C(=O)O [compound 150] (Ac-LEGREKVRAK(Ac)I[Aib][Aib]EG[Nle]STFS[αMeK]RAK(Ac)[AEEA][AEEA][AEEA][AEEA]K([γGlu-γGlu-γGlu-γGlu-Palmitoyl])-NH2) | 0.07 | 92 | 100 |  |  | 100 |  |  |  | 3600 | 2100 | 8 | 76 | 5.7 |  |  | 34 | 78 | 86 | 90
